Data set [1] concerns the target Histamine H3 receptor (Homo sapiens, UniProt Q9Y5N1). In words: Displacement of [3H]N-alpha-methylhistamine from human cloned H3 receptor. For orientation: Loss of bound radioactivity is the signal in a displacement assay; it reports binding, not function.
Data set [2] deals with Histamine H3 receptor (Rattus norvegicus, UniProt Q9QYN8). In words: Displacement of [3H]N-alpha-methylhistamine from rat cloned H3 receptor.
The nature of data set [3]: Inhibition of [3H]R-alpha-methylhistamine binding to brain of po dosed rat. The class given is functional, organism-based.
The nature of data set [4]: Oral bioavailability in rat at 10 mg/kg. It counts as ADME, organism-based. As to conditions: in vivo.

SMILES strings stand for the structures.

As usually defined, the bioavailability is dose-corrected exposure relative to a reference, in per cent.

Chain of Histamine H3 receptor (Homo sapiens, UniProt Q9Y5N1) (Q9Y5N1 whole entry): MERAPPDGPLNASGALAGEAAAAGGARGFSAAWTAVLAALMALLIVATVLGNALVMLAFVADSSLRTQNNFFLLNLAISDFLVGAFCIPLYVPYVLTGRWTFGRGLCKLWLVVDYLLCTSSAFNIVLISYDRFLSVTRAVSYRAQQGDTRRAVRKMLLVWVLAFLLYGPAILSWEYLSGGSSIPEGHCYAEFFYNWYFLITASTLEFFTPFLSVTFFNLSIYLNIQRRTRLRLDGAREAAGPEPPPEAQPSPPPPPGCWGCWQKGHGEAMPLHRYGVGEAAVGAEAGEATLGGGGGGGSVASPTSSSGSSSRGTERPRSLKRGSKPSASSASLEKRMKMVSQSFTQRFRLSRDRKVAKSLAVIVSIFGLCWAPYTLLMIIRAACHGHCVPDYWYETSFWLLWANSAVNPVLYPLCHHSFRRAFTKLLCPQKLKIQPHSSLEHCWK
Chain of Histamine H3 receptor (Rattus norvegicus, UniProt Q9QYN8) (Q9QYN8 whole entry): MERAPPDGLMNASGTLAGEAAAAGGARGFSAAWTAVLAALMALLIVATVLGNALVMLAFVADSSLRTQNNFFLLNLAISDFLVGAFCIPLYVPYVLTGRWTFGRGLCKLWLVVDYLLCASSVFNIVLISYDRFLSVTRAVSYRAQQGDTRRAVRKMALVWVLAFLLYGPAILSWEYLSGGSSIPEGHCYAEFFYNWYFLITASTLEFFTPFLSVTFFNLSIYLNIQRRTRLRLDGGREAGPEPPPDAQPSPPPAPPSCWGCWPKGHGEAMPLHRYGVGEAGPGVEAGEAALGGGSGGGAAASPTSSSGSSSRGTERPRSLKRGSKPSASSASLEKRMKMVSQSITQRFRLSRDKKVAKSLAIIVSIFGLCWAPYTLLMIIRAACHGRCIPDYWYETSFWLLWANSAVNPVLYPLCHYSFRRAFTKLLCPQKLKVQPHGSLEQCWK

For `CCN1CCc2cc(OCCCN3CCCCC3)ccc2C1`, on Histamine H3 receptor [1] (read-out: Ki), the Ki amounted to 0.54 nM.

With `CC(=O)N1CCc2ccc(OCCCN3CCCCC3)cc2C1`, the Ki was determined as 19.4 nM on Histamine H3 receptor [1] (read-out: Ki) and 36.7 nM at Histamine H3 receptor [2].

`O=S(=O)(c1ccccc1)N1CCc2c(cccc2OCCCN2CCCCC2)C1`: the Ki at Histamine H3 receptor [1] (read-out: Ki) is over 300 nM.

On to `c1cc2c(cc1OCCCN1CCCCC1)NCCC2`, for which the Ki on Histamine H3 receptor [1] (read-out: Ki) was 129 nM.

Take `O=C(c1cccs1)N1CCCc2ccc(OCCCN3CCCCC3)cc21`: the Ki at Histamine H3 receptor [1] (read-out: Ki) came out at 22.6 nM.

With `CCN1CCCc2cc(OCCCN3CCCCC3)ccc2C1`, the values for the Ki on Histamine H3 receptor [1] (read-out: Ki) and at Histamine H3 receptor [2] were 0.34 nM and 0.56 nM, respectively.

On to `O=C(c1cccs1)N1CCc2c(cccc2OCCCN2CCCCC2)C1`, for which, on Histamine H3 receptor [1] (read-out: Ki), the Ki is over 300 nM.

As to `c1cc2c(c(OCCCN3CCCCC3)c1)CN(CC1CCCCC1)CC2`, the Ki on Histamine H3 receptor [1] (read-out: Ki) came out at 59 nM.

Take `c1cc2c(cc1OCCCN1CCCCC1)N(CC1CCCCC1)CCC2`: on Histamine H3 receptor [1] (read-out: Ki), the Ki was found to be 187 nM.

For the compound `CCN1CCCc2cccc(OCCCN3CCCCC3)c21`, the Ki on Histamine H3 receptor [1] (read-out: Ki) was over 300 nM.

`CCN1CCc2ccc(OCCCN3CCCCC3)cc2CC1`: the Ki was 0.26 nM on Histamine H3 receptor [1] (read-out: Ki) and 1.1 nM at Histamine H3 receptor [2].

For the compound `c1cc2c(c(OCCCN3CCCCC3)c1)CCCN2`, the Ki at Histamine H3 receptor [1] (read-out: Ki) was over 300 nM.

`O=S(=O)(c1ccccc1)N1CCc2ccc(OCCCN3CCCCC3)cc2C1`: the Ki on Histamine H3 receptor [1] (read-out: Ki) was found to be 0.53 nM.

For the compound `CC(C)NC(=O)N1CCCc2cc(OCCCN3CCCCC3)ccc2C1`, the Ki worked out at 17.1 nM at Histamine H3 receptor [1] (read-out: Ki) and 32.5 nM on Histamine H3 receptor [2].

With `O=C(c1cccs1)N1CCc2cc(OCCCN3CCCCC3)ccc2C1`, the Ki on Histamine H3 receptor [1] (read-out: Ki) stood at 2.1 nM.

For the compound `CC(C)N1CCCc2cc(OCCCN3CCCCC3)ccc2C1`, in data set [3], the IC50 was 5.3 mg/kg. This compound also displayed a bioavailability in data set [4] of at least 100%. In addition, the figures for the Ki at Histamine H3 receptor [1] (read-out: Ki) and at Histamine H3 receptor [2] were 0.2 nM and 1.29 nM, respectively.

As to `c1cc2c(c(OCCCN3CCCCC3)c1)CNCC2`, the Ki on Histamine H3 receptor [1] (read-out: Ki) was found to be 154 nM.

In the case of `CC(C)N1CCc2ccc(OCCCN3CCCCC3)cc2C1`, the values for the Ki on Histamine H3 receptor [1] (read-out: Ki) and at Histamine H3 receptor [2] were 0.17 nM and 0.89 nM, respectively.

For the compound `CCN1CCCc2c(OCCCN3CCCCC3)cccc21`, the Ki at Histamine H3 receptor [1] (read-out: Ki) was over 300 nM.

For `O=S(=O)(c1ccccc1)N1CCCc2ccc(OCCCN3CCCCC3)cc21`, on Histamine H3 receptor [1] (read-out: Ki), the Ki was 7.3 nM.

On to `CC(C)NC(=O)N1CCc2ccc(OCCCN3CCCCC3)cc2CC1`, for which the Ki at Histamine H3 receptor [1] (read-out: Ki) came out at 42.3 nM.

Consider `c1cc2c(c(OCCCN3CCCCC3)c1)N(CC1CCCCC1)CCC2`, for which, on Histamine H3 receptor [1] (read-out: Ki), the Ki is over 300 nM.

Regarding `CCN1CCCc2ccc(OCCCN3CCCCC3)cc21`, the Ki on Histamine H3 receptor [1] (read-out: Ki) worked out at 156 nM.

Consider `CS(=O)(=O)N1CCc2ccc(OCCCN3CCCCC3)cc2C1`, for which the results for the Ki at Histamine H3 receptor [1] (read-out: Ki) and at Histamine H3 receptor [2] were 23.8 nM and 74.5 nM, respectively.

Turning to `CS(=O)(=O)N1CCc2ccc(OCCCN3CCCCC3)cc2CC1`, the Ki on Histamine H3 receptor [1] (read-out: Ki) came out at 12.1 nM; on Histamine H3 receptor [2], 38.1 nM.

Take `c1cc2c(cc1OCCCN1CCCCC1)CCCN2`: the Ki on Histamine H3 receptor [1] (read-out: Ki) amounted to 54 nM.

In the case of `c1cc2c(cc1OCCCN1CCCCC1)CCN(CC1CCCCC1)C2`, on Histamine H3 receptor [1] (read-out: Ki), the Ki is 1.01 nM.

For `c1cc2c(c(OCCCN3CCCCC3)c1)CCN(CC1CCCCC1)C2`, on Histamine H3 receptor [1] (read-out: Ki), the Ki is 15.4 nM.

With `O=S(=O)(c1ccccc1)N1CCc2cccc(OCCCN3CCCCC3)c2C1`, the Ki on Histamine H3 receptor [1] (read-out: Ki) was over 300 nM.

Consider `CC(=O)N1CCc2ccc(OCCCN3CCCCC3)cc2CC1`, for which the Ki on Histamine H3 receptor [1] (read-out: Ki) was found to be 11.6 nM; at Histamine H3 receptor [2] it was 48.8 nM.

As for `c1cc2c(c(OCCCN3CCCCC3)c1)NCCC2`, the Ki on Histamine H3 receptor [1] (read-out: Ki) was over 300 nM.

As to `CS(=O)(=O)N1CCCc2cc(OCCCN3CCCCC3)ccc2C1`, the Ki on Histamine H3 receptor [1] (read-out: Ki) turned out to be 2.9 nM; at Histamine H3 receptor [2], 70.1 nM.

In the case of `O=S(=O)(c1ccccc1)N1CCCc2cc(OCCCN3CCCCC3)ccc21`, the Ki on Histamine H3 receptor [1] (read-out: Ki) came out at 18 nM.

As to `CC(C)NC(=O)N1CCc2ccc(OCCCN3CCCCC3)cc2C1`, the results for the Ki on Histamine H3 receptor [1] (read-out: Ki) and on Histamine H3 receptor [2] were 4.9 nM and 39.6 nM, respectively.

Take `O=S(=O)(c1ccccc1)N1CCc2cc(OCCCN3CCCCC3)ccc2C1`: at Histamine H3 receptor [1] (read-out: Ki), the Ki was 7.4 nM.

For `O=C(c1cccs1)N1CCc2ccc(OCCCN3CCCCC3)cc2C1`, the Ki on Histamine H3 receptor [1] (read-out: Ki) came out at 8.1 nM.

Take `c1cc2c(cc1OCCCN1CCCCC1)CCCN2CC1CCCCC1`: on Histamine H3 receptor [1] (read-out: Ki), the Ki is 31 nM.

On to `CC(C)N1CCc2ccc(OCCCN3CCCCC3)cc2CC1`, for which the figures for the Ki on Histamine H3 receptor [1] (read-out: Ki) and at Histamine H3 receptor [2] were 0.72 nM and 1.6 nM, respectively.

In the case of `O=S(=O)(c1ccccc1)N1CCCc2cccc(OCCCN3CCCCC3)c21`, the Ki on Histamine H3 receptor [1] (read-out: Ki) was over 300 nM.

On to `c1ccc(CN2CCCc3cc(OCCCN4CCCCC4)ccc3C2)cc1`, for which the Ki at Histamine H3 receptor [1] (read-out: Ki) was 0.2 nM; at Histamine H3 receptor [2] it was 0.8 nM.

As for `c1cc2c(cc1OCCCN1CCCCC1)CCNC2`, the Ki on Histamine H3 receptor [1] stood at 2.4.

`CCN1CCc2ccc(OCCCN3CCCCC3)cc2C1` displayed an IC50 in data set [3] of 1.1 mg/kg. In data set [4], this compound displayed a bioavailability of 69%. In addition, the Ki worked out at 0.34 nM on Histamine H3 receptor [1] (read-out: Ki) and 0.64 nM at Histamine H3 receptor [2].

Take `O=C(c1cccs1)N1CCc2cccc(OCCCN3CCCCC3)c2C1`: at Histamine H3 receptor [1] (read-out: Ki), the Ki is over 300 nM.

For the compound `CCN1CCCc2cc(OCCCN3CCCCC3)ccc21`, at Histamine H3 receptor [1] (read-out: Ki), the Ki amounted to 41 nM.

For `c1cc2c(cc1OCCCN1CCCCC1)CN(CC1CCCCC1)CC2`, the Ki on Histamine H3 receptor [1] (read-out: Ki) came to 0.35 nM; on Histamine H3 receptor [2], 0.46 nM.

For `c1cc2c(cc1OCCCN1CCCCC1)CCN(CC1CCCCC1)CC2`, the Ki at Histamine H3 receptor [1] (read-out: Ki) amounted to 0.53 nM; at Histamine H3 receptor [2] it was 0.97 nM.

Take `c1cc2c(c(OCCCN3CCCCC3)c1)CCNC2`: at Histamine H3 receptor [1] (read-out: Ki), the Ki was over 300 nM.

For `c1cc(OCCCN2CCCCC2)c2c(c1)N(CC1CCCCC1)CCC2`, the Ki at Histamine H3 receptor [1] (read-out: Ki) was 141 nM.

As to `CCN1CCc2c(cccc2OCCCN2CCCCC2)C1`, the Ki at Histamine H3 receptor [1] (read-out: Ki) came to 84.2 nM.

As to `CCN1CCc2cccc(OCCCN3CCCCC3)c2C1`, the Ki at Histamine H3 receptor [1] (read-out: Ki) was 95.2 nM.

On to `O=C(c1cccs1)N1CCCc2cccc(OCCCN3CCCCC3)c21`, for which, on Histamine H3 receptor [1] (read-out: Ki), the Ki is over 300 nM.

Consider `c1cc2c(cc1OCCCN1CCCCC1)CNCC2`, for which the Ki at Histamine H3 receptor [1] (read-out: Ki) was 0.6 nM.

Values taken from ChEMBL document CHEMBL1138084, “Synthesis and SAR of novel histamine H3 receptor antagonists” (Bioorg Med Chem Lett, 2006).
